Results: patent US6228853A, “Pyrrolopyrrolone derivatives as inhibitors of neutrophil elastase” (Glaxo Wellcome Inc., priority 1997, dated 2001)
Structures can show the parent of a compound that is named as a salt.

Tests used:
[1] = molecular target: T1, elastase (Homo sapiens, UniProt P08246); assay: Human whole blood elastase inhibition assay; assay type: cell-based; conditions: heparinised, 30 minutes at 37° C.
T1 construct: fresh, heparinised human whole blood; endogenous in cells; host or cells: leukocytes (neutrophils) of fresh heparinised human whole blood
T1 sequence (P08246 30-267): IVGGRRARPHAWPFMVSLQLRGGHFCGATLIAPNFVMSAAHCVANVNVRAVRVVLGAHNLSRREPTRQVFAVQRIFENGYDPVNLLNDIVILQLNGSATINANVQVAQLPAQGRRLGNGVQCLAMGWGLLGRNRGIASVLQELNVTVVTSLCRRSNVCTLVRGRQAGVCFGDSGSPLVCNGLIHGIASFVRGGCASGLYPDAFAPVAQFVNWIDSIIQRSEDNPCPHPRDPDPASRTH
Method: Human whole blood elastase inhibition assay
Triplicate aliquots of fresh, heparinised human whole blood (200 μl) are added to appropriately diluted samples (10 μl) of compounds under test. […] Samples are mixed thoroughly by pipette, and are then incubated for 30 minutes at 37° C. Cold red cell lysis buffer (750 μl of 155 mM ammonium chloride, 0.12 mM EDTA, 10 mM potassium bicarbonate, pH 7.4) is then added. Tubes are capped, inverted several times, and maintained at 4° C. for 15 minutes, inverting every 5 minutes. After centrifugation at 250 g for 10 minutes, at 4° C., the resulting pelleted cells are washed. The wash is with saline (300 μl), followed by centrifugation at 100 g for 10 minutes at 4° C. Pellets are washed twice more, before resuspension of the final cell pellet in buffer (200 μl of 100 mM Tris, 300 mM NaCl, 1% (w/v) HTAB, pH 8.6). Samples are stored at -20° C. After freeze-thawing of the samples four times, elastase activity is determined by a calorimetric assay in 50 mM Tris, 150 mM NaCl, 0.6 mM MeO-Succ-Ala-Ala-Ala-Pro-Val-pNA at pH 8.6, measuring the rate of increase in absorbance at 405 nm.

[2] = molecular target: T2, human neutrophil elastase (Homo sapiens, UniProt P08246); assay: In vitro assay of human neutrophil elastase; assay type: biochemical; conditions: in vitro elastase test; purified human neutrophil elastase 11.8 nM, pH 8.6, 15 min at 30° C., 0.6 mM MeO-succinyl-alanyl-alanyl-prolyl-valyl-p-nitroanilide
T2 sequence (P08246 30-267): T1 sequence (P08246 30-267)
Method: In vitro assays of human neutrophil elastase Assay contents: 50 mM Tris/HCl (pH 8.6) 150 mM NaCl 11.8 nM purified human neutrophil elastase Suitable concentrations of compound under test diluted with water from a 10 mM stock solution in dimethylsulphoxide. Values above are final concentrations after the addition of substrate solution (see below). The mixture above is incubated for fifteen minutes at 30° C. at which time the remaining elastase activity is measured for 10 minutes in a BioTek 340i plate-reader, after the addition of 0.6 mM MeO-succinyl-alanyl-alanyl-prolyl-valyl-p-nitroanilide. The rate of increase in absorbance at 405 nm is proportional to elastase activity. Enzyme activity is plotted against concentration of inhibitor and an IC50 determined using curve fitting software.

[3] = system: intracellular elastase; assay: Oral in vivo hamster model using IL-8 induced lung infiltrates for assessment of intracellular elastase inhibition; conditions: in vivo hamster IL-8 test, at a dose of less than 10 mg/kg
Method: In vivo activity of inhibitors of human neutrophil elastase:
An oral in vivo model using IL-8 induced lung infiltrates for the assessment of intracellular elastase inhibition
Adult hamsters (100-150 g) are randomised into groups (n=4) and fasted overnight. Under gaseous anaesthetic (3% isofluorane) animals are dosed orally with 1 mL/100 g water as vehicle or containing predissolved compounds. Either at the same time, or subsequently under anaesthetic, animals are dosed intratracheally with 1 ug recombinant human IL-8 in 100 uL sterile saline. Six hours after IL-8 dosing animals are sacrificed using intraperitoneal pentobarbitone. The lungs are lavaged with 2×2.5 mL sterile saline and femurs are removed by dissection.
Intracellular elastase is prepared from neutrophils collected by lavage and from femoral bone marrow. This is achieved by sonication of the neutrophils and centrifugation to yield intracellular granules. These are disrupted by freeze/thawing and sonication. Elastase and myeloperoxidase assays are then performed on these samples to assess the efficacy of the compounds and to normalise for neutrophil recovery.

Structure (SMILES) | IC50 [1] | IC50 [2] | duration of action [3]
CC(C)[C@H]1C(=O)N(S(C)(=O)=O)[C@H]2CCN(C(=O)C3CN(CC4CC4)C3)[C@H]12 (relative stereo) [Example 1, rel-(3R,3aR,6aS)-4-(1-CyclopropyImethyl-azetidine-3carbonyl)-3-isopropyl-1-methanesulfonyl-hexahydropyrrolo[3,2-b]pyrrol-2-one hydrochloride] | 5400 nM | 194 nM | –
CC(C)[C@H]1C(=O)N(S(C)(=O)=O)[C@H]2CCN(C(=O)C3CN(CC(C)(C)C)C3)[C@H]12.Cl (relative stereo) [Example 3, rel-(3R,3aR,6aS)-4-[1-(2,2-Dimethyl-propyl)-azetidine-3-carbonyl]-3-isopropyl-1-methanesulfonyl-hexahydro-pyrrolo[3,2-b]pyrrol-2-one hydrochloride] | – | – | at least 6 hours
CCCCN1CC(C(=O)N2CC[C@H]3[C@H]2[C@@H](C(C)C)C(=O)N3S(C)(=O)=O)C1 (relative stereo) [Example 5, rel-(3R,3aR,6aS)-4-(1-Butyazetidine-3-carbonyl)-3-isopropyl-1-methanesulfonyl-hexahydro-pyrrolo[3,2-b]pyrrol-2-one hydrochloride] | 1700 nM | 93 nM | –

Now from value to compound, other results behind:

IC50 [1] | IC50 [2] | Structure (SMILES) | duration of action [3]
810 nM | 229 nM | CC(C)[C@H]1C(=O)N(S(C)(=O)=O)[C@H]2CCN(C(=O)C3CN(Cc4ccccc4)C3)[C@H]12 (relative stereo) [Example 2, rel-(3R,3aR,6aS)-4-(1-Benzylazetidine-3-carbonyl)-3-isopropyl-1-methanesulfonyl-hexahydro-pyrrolo[3,2-b]pyrrol-2-one hydrochloride] | –
1200 nM | 210 nM | CC(C)[C@H]1C(=O)N(S(C)(=O)=O)[C@H]2CCN(C(=O)C3CN(Cc4c(Cl)cccc4Cl)C3)[C@H]12 (relative stereo) [Example 4, rel-(3R,3aR,6aS)-4-[1-(2,6-Dichloro-benzyl)-azetidine-3-carbonyl]-3-isopropyl-1-methanesulfonyl-hexahydropyrrolo[3,2-b]pyrrol-2-one hydrochloride] | –
